The values that follow come from the supplement of paper PMC10307832.

Common to all, as to assay: relative viability (nuclei count vs DMSO), 5 days (fraction); higher = more cells survive
Compound in the assay “MLN4924 + Pemetrexed”: NS(=O)(=O)OC[C@@H]1C[C@@H](n2ccc3c(N[C@H]4CCc5ccccc54)ncnc32)C[C@@H]1O [MLN4924] + Nc1nc2[nH]cc(CCc3ccc(C(=O)N[C@@H](CCC(=O)O)C(=O)O)cc3)c2c(=O)[nH]1 [Pemetrexed] (partner 0.2 µM)
The method, boiled down:
(§1)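 Relative viability was taken as the ratio of nuclei in treated wells to nuclei in vehicle wells. Lung cancer cell lines in 1536-well plates received compounds by pin tool one day after seeding, either one drug alone or a fixed anchor-drug dose plus five library-drug doses (not always all listed) in √10 steps. Nuclei were counted on 4× images after 5 days of treatment, and values are medians of duplicate plates.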

Compound in the assay “MLN4924 + Luminespib”: NS(=O)(=O)OC[C@@H]1C[C@@H](n2ccc3c(N[C@H]4CCc5ccccc54)ncnc32)C[C@@H]1O [MLN4924] + CCNC(=O)c1noc(-c2cc(C(C)C)c(O)cc2O)c1-c1ccc(CN2CCOCC2)cc1 [Luminespib] (partner 0.01 µM)
Summed up: as §1

Compound in the assay “GSK126 + Crizotinib”: CC[C@H](C)N1C=C(C2=C(C=C(C=C21)C3=CN=C(C=C3)N4CCNCC4)C(=O)NCC5=C(C=C(NC5=O)C)C)C [GSK126] + C[C@@H](Oc1cc(-c2cnn(C3CCNCC3)c2)cnc1N)c1c(Cl)ccc(F)c1Cl [Crizotinib] (partner 1 µM)
The method, boiled down:
as §1

Compound in the assay “MLN4924 + Crizotinib”: NS(=O)(=O)OC[C@@H]1C[C@@H](n2ccc3c(N[C@H]4CCc5ccccc54)ncnc32)C[C@@H]1O [MLN4924] + C[C@@H](Oc1cc(-c2cnn(C3CCNCC3)c2)cnc1N)c1c(Cl)ccc(F)c1Cl [Crizotinib] (partner 1 µM)
The method, boiled down:
as §1

For NCI-H3122, the relative viability with MLN4924 + Pemetrexed (first compound 0.04 µM) was 0.202; in the assay with MLN4924 + Pemetrexed (first compound 0.1265 µM), 0.219; with MLN4924 + Pemetrexed (first compound 0.4 µM) it was 0.17; in the assay with MLN4924 + Pemetrexed (first compound 1.265 µM), 0.155; with MLN4924 + Pemetrexed (first compound 4 µM), 0.138; in the assay with MLN4924 + Luminespib (first compound 0.04 µM) it was 0.078. Besides, the relative viability with MLN4924 + Luminespib (first compound 0.1265 µM) is 0.063; in the assay with MLN4924 + Luminespib (first compound 0.4 µM) it was 0.0724; with MLN4924 + Luminespib (first compound 1.265 µM), 0.0583; with MLN4924 + Luminespib (first compound 4 µM) it was 0.0491; in the assay with GSK126 + Crizotinib (first compound 0.08 µM), 0.251; with GSK126 + Crizotinib (first compound 0.253 µM), 0.341. In addition, the relative viability with GSK126 + Crizotinib (first compound 0.8 µM) was 0.292; in the assay with GSK126 + Crizotinib (first compound 2.53 µM), 0.267; in the assay with GSK126 + Crizotinib (first compound 8 µM) it was 0.347; with MLN4924 + Crizotinib (first compound 0.04 µM) it was 0.369; with MLN4924 + Crizotinib (first compound 0.1265 µM) it was 0.338; with MLN4924 + Crizotinib (first compound 0.4 µM), 0.358. In addition, the relative viability with MLN4924 + Crizotinib (first compound 1.265 µM) amounted to 0.178; with MLN4924 + Crizotinib (first compound 4 µM), 0.153.
Consider PC-3 [JPC-3], for which the relative viability came out at 1.1 with MLN4924 + Pemetrexed (first compound 0.04 µM); 1.26 with MLN4924 + Pemetrexed (first compound 0.1265 µM); 0.288 with MLN4924 + Pemetrexed (first compound 0.4 µM); 0.311 with MLN4924 + Pemetrexed (first compound 1.265 µM); 0.377 with MLN4924 + Pemetrexed (first compound 4 µM); 0.799 with MLN4924 + Luminespib (first compound 0.04 µM). Also, the relative viability in the assay with MLN4924 + Luminespib (first compound 0.1265 µM) was found to be 0.773; in the assay with MLN4924 + Luminespib (first compound 0.4 µM), 0.552; with MLN4924 + Luminespib (first compound 1.265 µM), 0.346; with MLN4924 + Luminespib (first compound 4 µM) it was 0.327; with GSK126 + Crizotinib (first compound 0.08 µM), 0.993; with GSK126 + Crizotinib (first compound 0.253 µM) it was 0.997. The relative viability in the assay with GSK126 + Crizotinib (first compound 0.8 µM) was determined as 0.982; in the assay with GSK126 + Crizotinib (first compound 2.53 µM) it was 0.956; in the assay with GSK126 + Crizotinib (first compound 8 µM), 1.02; with MLN4924 + Crizotinib (first compound 0.04 µM), 0.986; with MLN4924 + Crizotinib (first compound 0.1265 µM) it was 0.909; with MLN4924 + Crizotinib (first compound 0.4 µM), 0.477. Moreover, the relative viability with MLN4924 + Crizotinib (first compound 1.265 µM) turned out to be 0.34; with MLN4924 + Crizotinib (first compound 4 µM) it was 0.293.
Turning to PC-14, the relative viability amounted to 0.157 in the assay with MLN4924 + Pemetrexed (first compound 0.04 µM); 0.128 with MLN4924 + Pemetrexed (first compound 0.1265 µM); 0.0989 with MLN4924 + Pemetrexed (first compound 0.4 µM); 0.0654 with MLN4924 + Pemetrexed (first compound 1.265 µM); 0.0612 with MLN4924 + Pemetrexed (first compound 4 µM); 0.151 with MLN4924 + Luminespib (first compound 0.04 µM). Moreover, the relative viability in the assay with MLN4924 + Luminespib (first compound 0.1265 µM) worked out at 0.164; with MLN4924 + Luminespib (first compound 0.4 µM), 0.114; in the assay with MLN4924 + Luminespib (first compound 1.265 µM), 0.116; with MLN4924 + Luminespib (first compound 4 µM), 0.152; with GSK126 + Crizotinib (first compound 0.08 µM), 0.839; with GSK126 + Crizotinib (first compound 0.253 µM) it was 0.989. Also, the relative viability was 0.922 with GSK126 + Crizotinib (first compound 0.8 µM); 0.892 with GSK126 + Crizotinib (first compound 2.53 µM); 0.799 in the assay with GSK126 + Crizotinib (first compound 8 µM); 0.872 in the assay with MLN4924 + Crizotinib (first compound 0.04 µM); 0.888 with MLN4924 + Crizotinib (first compound 0.1265 µM); 0.591 in the assay with MLN4924 + Crizotinib (first compound 0.4 µM). The relative viability in the assay with MLN4924 + Crizotinib (first compound 1.265 µM) came out at 0.161; with MLN4924 + Crizotinib (first compound 4 µM), 0.109.
Regarding RERF-LC-KJ, the relative viability in the assay with MLN4924 + Pemetrexed (first compound 0.04 µM) worked out at 0.523; with MLN4924 + Pemetrexed (first compound 0.1265 µM), 0.426; in the assay with MLN4924 + Pemetrexed (first compound 0.4 µM), 0.18; with MLN4924 + Pemetrexed (first compound 1.265 µM), 0.208; with MLN4924 + Pemetrexed (first compound 4 µM) it was 0.224; with MLN4924 + Luminespib (first compound 0.04 µM) it was 1.01. In addition, the relative viability with MLN4924 + Luminespib (first compound 0.1265 µM) worked out at 0.629; with MLN4924 + Luminespib (first compound 0.4 µM), 0.328; with MLN4924 + Luminespib (first compound 1.265 µM), 0.265; with MLN4924 + Luminespib (first compound 4 µM), 0.272; with GSK126 + Crizotinib (first compound 0.08 µM), 0.841; with GSK126 + Crizotinib (first compound 0.253 µM), 0.896. For the same cell line, the relative viability with GSK126 + Crizotinib (first compound 0.8 µM) was 0.826; with GSK126 + Crizotinib (first compound 2.53 µM), 0.785; in the assay with GSK126 + Crizotinib (first compound 8 µM) it was 0.838; in the assay with MLN4924 + Crizotinib (first compound 0.04 µM), 0.786; with MLN4924 + Crizotinib (first compound 0.1265 µM) it was 0.471; in the assay with MLN4924 + Crizotinib (first compound 0.4 µM) it was 0.225. Moreover, the results for the relative viability in the assay with MLN4924 + Crizotinib (first compound 1.265 µM) and with MLN4924 + Crizotinib (first compound 4 µM) were 0.221 and 0.207, respectively.
On to SK-LU-1, for which the relative viability in the assay with MLN4924 + Pemetrexed (first compound 0.04 µM) came out at 0.94; in the assay with MLN4924 + Pemetrexed (first compound 0.1265 µM), 0.829; with MLN4924 + Pemetrexed (first compound 0.4 µM), 0.26; with MLN4924 + Pemetrexed (first compound 1.265 µM) it was 0.194; with MLN4924 + Pemetrexed (first compound 4 µM) it was 0.212; in the assay with MLN4924 + Luminespib (first compound 0.04 µM) it was 0.18. The relative viability in the assay with MLN4924 + Luminespib (first compound 0.1265 µM) was 0.228; in the assay with MLN4924 + Luminespib (first compound 0.4 µM) it was 0.215; with MLN4924 + Luminespib (first compound 1.265 µM), 0.186; with MLN4924 + Luminespib (first compound 4 µM) it was 0.147; with GSK126 + Crizotinib (first compound 0.08 µM), 1.01; with GSK126 + Crizotinib (first compound 0.253 µM), 0.935. Besides, the relative viability worked out at 0.949 with GSK126 + Crizotinib (first compound 0.8 µM); 1.13 with GSK126 + Crizotinib (first compound 2.53 µM); 1.06 with GSK126 + Crizotinib (first compound 8 µM); 0.951 in the assay with MLN4924 + Crizotinib (first compound 0.04 µM); 0.802 in the assay with MLN4924 + Crizotinib (first compound 0.1265 µM); 0.236 with MLN4924 + Crizotinib (first compound 0.4 µM). For the same cell line, the relative viability in the assay with MLN4924 + Crizotinib (first compound 1.265 µM) turned out to be 0.182; in the assay with MLN4924 + Crizotinib (first compound 4 µM), 0.201.
As for SK-MES-1, the relative viability in the assay with MLN4924 + Pemetrexed (first compound 0.04 µM) is 0.968; in the assay with MLN4924 + Pemetrexed (first compound 0.1265 µM) it was 0.87; in the assay with MLN4924 + Pemetrexed (first compound 0.4 µM), 0.415; with MLN4924 + Pemetrexed (first compound 1.265 µM) it was 0.227; in the assay with MLN4924 + Pemetrexed (first compound 4 µM), 0.247; with MLN4924 + Luminespib (first compound 0.04 µM), 0.866. Moreover, the relative viability in the assay with MLN4924 + Luminespib (first compound 0.1265 µM) amounted to 0.694; in the assay with MLN4924 + Luminespib (first compound 0.4 µM), 0.551; in the assay with MLN4924 + Luminespib (first compound 1.265 µM), 0.173; with MLN4924 + Luminespib (first compound 4 µM) it was 0.195; in the assay with GSK126 + Crizotinib (first compound 0.08 µM), 1.01; in the assay with GSK126 + Crizotinib (first compound 0.253 µM) it was 0.971. In addition, the relative viability in the assay with GSK126 + Crizotinib (first compound 0.8 µM) stood at 0.931; in the assay with GSK126 + Crizotinib (first compound 2.53 µM), 0.925; in the assay with GSK126 + Crizotinib (first compound 8 µM), 1.05; in the assay with MLN4924 + Crizotinib (first compound 0.04 µM), 1.02; with MLN4924 + Crizotinib (first compound 0.1265 µM), 0.842; in the assay with MLN4924 + Crizotinib (first compound 0.4 µM), 0.702. Besides, the relative viability amounted to 0.228 with MLN4924 + Crizotinib (first compound 1.265 µM) and 0.22 in the assay with MLN4924 + Crizotinib (first compound 4 µM).
SW 1573: the relative viability turned out to be 0.899 with MLN4924 + Pemetrexed (first compound 0.04 µM); 0.901 with MLN4924 + Pemetrexed (first compound 0.1265 µM); 0.249 with MLN4924 + Pemetrexed (first compound 0.4 µM); 0.0884 in the assay with MLN4924 + Pemetrexed (first compound 1.265 µM); 0.0765 with MLN4924 + Pemetrexed (first compound 4 µM); 0.259 in the assay with MLN4924 + Luminespib (first compound 0.04 µM). Also, the relative viability with MLN4924 + Luminespib (first compound 0.1265 µM) is 0.365; with MLN4924 + Luminespib (first compound 0.4 µM) it was 0.0849; in the assay with MLN4924 + Luminespib (first compound 1.265 µM), 0.0812; in the assay with MLN4924 + Luminespib (first compound 4 µM) it was 0.0892; in the assay with GSK126 + Crizotinib (first compound 0.08 µM) it was 0.868; with GSK126 + Crizotinib (first compound 0.253 µM) it was 0.82. For the same cell line, the relative viability with GSK126 + Crizotinib (first compound 0.8 µM) worked out at 0.751; in the assay with GSK126 + Crizotinib (first compound 2.53 µM) it was 0.84; with GSK126 + Crizotinib (first compound 8 µM), 0.785; with MLN4924 + Crizotinib (first compound 0.04 µM), 0.802; in the assay with MLN4924 + Crizotinib (first compound 0.1265 µM), 0.734; in the assay with MLN4924 + Crizotinib (first compound 0.4 µM), 0.748. The relative viability with MLN4924 + Crizotinib (first compound 1.265 µM) worked out at 0.0862; with MLN4924 + Crizotinib (first compound 4 µM) it was 0.0778.
